Values quoted from earlier work, collected in patent publication US8512794B2, “Oleate ester phytosterol compositions” (Perlman Consulting, LLC, priority 2010, dated 2013).

Test system: humans

Structure (SMILES) | lowering of serum cholesterol (12-18 g per day in divided doses, males with atherosclerosis (Faquhar et al. 1956)) | decrease of plasma cholesterol level (9-18 grams per day, coarse powdered form)
CC[C@H](CC[C@@H](C)[C@H]1CC[C@H]2[C@@H]3CC=C4C[C@@H](O)CC[C@]4(C)[C@H]3CC[C@]12C)C(C)C [beta sitosterol] | 15-20% | 
CC[C@H](CC[C@@H](C)[C@H]1CC[C@H]2[C@@H]3CC=C4C[C@@H](O)CC[C@]4(C)[C@H]3CC[C@]12C)C(C)C [sitosterol] |  | approximately 15%
